Like-named read-outs stand apart in the source and are kept apart here.
How the values were obtained:
Assay type in all cases: biochemical
CYP3A4 [1] = target: T1, CYP3A4 (Homo sapiens, UniProt P08684); test: Determination of IC50 against CYP3A4 by measurement of inhibition of midazolam metabolism (human liver microsomes, 1-hydroxymidazolam by LC-MS/MS); design: 0.1 mg/mL human liver microsomes; conditions: 2 μM midazolam, 0.1 mg/mL human liver microsomes
Outline: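 Human liver microsomes (0.1 mg/mL) incubated 8 min with 2 μM midazolam and 1 mM NADPH in 100 mM potassium phosphate, pH 7.4. 1-Hydroxymidazolam quantified by LC-MS/MS (MRM) as peak area ratio to internal standard against a metabolite standard curve.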

CYP3A4 [2] = target: T1, CYP3A4; test: Determination of IC50 against CYP3A4 by measurement of inhibition of testosterone metabolism (human liver microsomes, 6-β-OH-testosterone by LC-MS/MS); design: 0.1 mg/mL human liver microsomes; conditions: read-out: IC50 (Testo.)
Outline: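 6-β-OH-testosterone formation was read by LC-MS/MS (MRM, internal standard, standard curve) after eight minutes. Reaction contained testosterone 25 μM, NADPH 1 mM and microsomal protein 0.1 mg/mL in pH 7.4 potassium phosphate (100 mM).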

CYP3A4 [3] = target: T1, CYP3A4; test: Determination of compound Kiapp against recombinant CYP3A4 enzyme (BFC fluorescent substrate)
Outline: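 Kiapp derived from initial velocities over the first 5 min of BFC (5 uM) oxidation, using Morrison's tight-binding equation for non-partial and Szedlacsek's for partial inhibitors. Inhibitor first pre-incubated ≥30 min with CYP3A4 (5.5 or 8 nM, ±b5) in pH 7.0 phosphate/TCEP/2% DMF at room temperature; 200 uM NADPH initiated.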

[4] = Baculo. enzyme preparation, read-out: Kiapp (BFC, Baculo.)
[5] = Super. enzyme preparation, read-out: Kiapp (BFC, Super.)

T1 sequence (P08684 whole entry): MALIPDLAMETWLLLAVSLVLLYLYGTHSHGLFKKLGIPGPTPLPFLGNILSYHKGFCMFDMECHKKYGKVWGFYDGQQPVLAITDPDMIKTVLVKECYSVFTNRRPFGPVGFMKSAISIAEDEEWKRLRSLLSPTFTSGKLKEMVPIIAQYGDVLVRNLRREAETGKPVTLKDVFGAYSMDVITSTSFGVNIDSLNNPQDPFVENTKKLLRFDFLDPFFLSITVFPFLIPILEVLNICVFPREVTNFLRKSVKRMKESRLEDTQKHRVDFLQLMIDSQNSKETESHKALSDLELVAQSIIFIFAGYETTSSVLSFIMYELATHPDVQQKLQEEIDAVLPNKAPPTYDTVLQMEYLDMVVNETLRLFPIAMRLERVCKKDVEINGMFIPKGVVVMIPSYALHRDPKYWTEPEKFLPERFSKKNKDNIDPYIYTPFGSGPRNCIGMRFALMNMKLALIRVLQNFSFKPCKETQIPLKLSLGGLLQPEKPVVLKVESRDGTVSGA

SMILES | IC50 (CYP3A4 [1]) [nM] | IC50 (CYP3A4 [2]) [nM] | Ki (CYP3A4 [3]; [4]) [nM] | Ki (CYP3A4 [3]; [5]) [nM]
CCOc1ccccc1CNC(=O)c1ccccc1S(=O)(=O)Nc1cccnc1 [Example 72, N-(2-ethoxybenzyl)-2-[(pyridin-3-ylamino)sulfonyl]benzamide] | 27 | < 3 | 164 | 12.9
COc1cncc(NS(=O)(=O)c2ccc(OC3CCNCC3)cc2C(=O)NCc2ccc(F)cc2)c1 [Example 264, N-(4-fluorobenzyl)-2-{[(5-methoxypyridin-3-yl)amino]sulfonyl}-5-(piperidin-4-yloxy)benzamide] | 26 | 58 | 34.7 | 9.88
CCCCCN(C)C(=O)c1ccccc1S(=O)(=O)Nc1cnccc1OCC [Example 272, 2-{[(4-ethoxypyridin-3-yl)amino]sulfonyl}-N-methyl-N-pentylbenzamide] | 12 | 19 | 67.3 | 5.68
CCOc1ccncc1NS(=O)(=O)c1ccccc1C(=O)NCCOC [Example 217, 2-{[(4-ethoxypyridin-3-yl)amino]sulfonyl}-N-(2-methoxyethyl)benzamide] | 179 | 230 | 965 | 216
COc1cccc(CNC(=O)c2ccccc2S(=O)(=O)Nc2cccnc2)c1 [Example 46, N-(3-methoxybenzyl)-2-[(pyridin-3-ylamino)sulfonyl]benzamide] | 23 | 23 | 325 | –
COc1cncc(NS(=O)(=O)c2ccccc2C(=O)NCCOC(C)C)c1 [Example 241, N-(2-isopropoxyethyl)-2-{[(5-methoxypyridin-3-yl)amino]sulfonyl}benzamide] | 77 | 150 | 751 | 97
COc1cncc(NS(=O)(=O)c2ccccc2C(=O)NCCN2CCCCC2)c1 [Example 385, 2-{[(5-methoxypyridin-3-yl)amino]sulfonyl}N-(2-piperidin-1-ylethyl)benzamide] | > 750 | > 750 | > 1000 | 216
CCOc1ccncc1NS(=O)(=O)c1ccccc1C(=O)NCc1ccc(F)c(C(F)(F)F)c1 [Example 250, 2-{[(4-ethoxypyridin-3-yl)amino]sulfonyl}-N-[4-fluoro-3-(trifluoromethyl)benzyl]benzamide] | 10 | 7 | 4.3 | 3.14
CCOc1ccncc1NS(=O)(=O)c1ccccc1C(=O)NCCOc1ccccc1 [Example 219] | 27 | 32 | 108 | 40.3
Cc1cncc(NS(=O)(=O)c2ccccc2C(=O)NCC2CCCC2)c1 [Example 334, N-(cyclopentylmethyl)-2-{[(5-methylpyridin-3-yl)amino]sulfonyl}benzamide] | 12 | 17 | 82.6 | 9.1
COc1cncc(NS(=O)(=O)c2ccc(OCCN3CCOCC3)cc2C(=O)N(C)C(C)C)c1 [Example 247, N-isopropyl-2-{[(5-methoxypyridin-3-yl)amino]sulfonyl}-N-methyl-5-(2-morpholin-4-ylethoxy)benzamide] | 54 | 108 | 48.4 | 88.9
Cc1cc(CNC(=O)c2ccccc2S(=O)(=O)Nc2cnccc2C)ccc1F [Example 167, N-(4-fluoro-3-methylbenzyl)-2-{[(4-methylpyridin-3-yl)amino]sulfonyl}benzamide] | 9 | 16 | 159 | 17.4
Cc1cncc(NS(=O)(=O)c2ccccc2C(=O)N2CCCCC2)c1 [Example 30, N-(5-methylpyridin-3-yl)-2-(piperidin-1-ylcarbonyl)benzenesulfonamide] | 56 | 125 | 690 | –
COCCN(C)C(=O)c1ccccc1S(=O)(=O)Nc1cnccc1C [Example 170, N-(2-methoxyethyl)-N-methyl-2-{[(4-methylpyridin-3-yl)amino]sulfonyl}benzamide] | 557 | 285 | > 1000 | 427
COc1cncc(NS(=O)(=O)c2ccccc2C(=O)NCCc2ccccc2F)c1 [Example 258, N-[2-(2-fluorophenyl)ethyl]-2-{[(5-methoxypyridin-3-yl)amino]sulfonyl}benzamide] | 6 | 11 | 50.9 | 6.49
CC(C)(CN1CCCC1)NC(=O)c1ccccc1S(=O)(=O)Nc1cccnc1 [Example 3] | > 750 | > 750 | 858 | > 1000
CCC(C)(C)NC(=O)c1ccccc1S(=O)(=O)Nc1cccnc1 [Example 38, N-(1,1-dimethylpropyl)-2-[(pyridin-3-ylamino)sulfonyl]benzamide] | 68 | 84 | 644 | –
Cc1cncc(NS(=O)(=O)c2ccccc2C(=O)N(C)CCc2ccccc2C)c1 [Example 154, N-methyl-N-[2-(2-methylphenyl)ethyl]-2-{[(5-methylpyridin-3-yl)amino]sulfonyl}benzamide] | 6 | 23 | 11.5 | 3.2
COCCNC(=O)c1ccccc1S(=O)(=O)Nc1cnccc1C [Example 174, N-(2-methoxyethyl)-2-{[(4-methylpyridin-3-yl)amino]sulfonyl}benzamide] | 451 | 356 | > 1000 | 392
COc1ccncc1NS(=O)(=O)c1ccccc1C(=O)N(C)C(C)C [Example 279, N-isopropyl-2-{[(4-methoxypyridin-3-yl)amino]sulfonyl}-N-methylbenzamide] | 123 | 337 | > 1000 | 95.2
CNC(=O)c1ccc(CNC(=O)c2ccccc2S(=O)(=O)Nc2cccnc2)cc1 [Example 81, N-{4-[(methylamino)carbonyl]benzyl}-2-[(pyridin-3-ylamino)sulfonyl]benzamide] | 501 | < 3 | > 1000 | 276
COc1cncc(NS(=O)(=O)c2ccccc2C(=O)NC(C)C2CC2)c1 (stereo not shown) [Example 311, N-(1-cyclopropylethyl)-2-{[(5-methoxypyridin-3-yl)amino]sulfonyl}benzamide] | 34 | 73 | 209 | 76.2
Cc1cncc(NS(=O)(=O)c2ccccc2C(=O)NCc2ccc(C)c(F)c2)c1 [Example 157, N-(3-fluoro-4-methylbenzyl)-2-{[(5-methylpyridin-3-yl)amino]sulfonyl}benzamide] | 8 | 8 | 49.4 | 1.3
CN(Cc1ccccc1)C(=O)c1ccccc1S(=O)(=O)N(C)c1cccnc1 [Example 355, N-benzyl-N-methyl-2-{[methyl(pyridin-3-yl)amino]sulfonyl}benzamide] | 63 | 64 | 181 | 44.9
CC1CCN(C(=O)c2ccccc2S(=O)(=O)N(C)c2cccnc2)CC1 [Example 356, N-methyl-2-[(4-methylpiperidin-1-yl)carbonyl]-N-pyridin-3-ylbenzenesulfonamide] | 83 | 114 | 483 | 148

From patent US7868026B2, “Therapeutic compounds” (Pfizer Inc., priority 2005, dated 2011)
